Measured values as given in publication PMC12603070, “A high-throughput screening approach to discover potential colorectal cancer chemotherapeutics: repurposing drugs to identify novel disruptors of 14-3-3 proteins” (Cell Death & Disease, 2025).
Structures can show the parent of a compound that is named as a salt. Where two headings read alike, the source gives them in different places.

Tests used:
[1] = system: HT-29 cells; assay: Hoechst/propidium iodide cell death assay in HT-29; assay type: cell-based, human; settings: for cytotoxicity at 20 µM: Homo sapiens
Source text: (§1) A high-content imaging system (PerkinElmer; Operetta CLS), was used to quantify cell death and apoptosis by calculating the number of propidium iodide-positive cells relative to Hoechst-positive cells, and the number of Annexin V-positive cells relative to Hoechst-positive cells, respectively.

[2] = system: NIH-3T3 cells; assay: Hoechst/propidium iodide cell death assay in NIH-3T3; assay type: cell-based; settings: for cytotoxicity at 20 µM: Mus musculus, NIH3T3, 24 h, read-out: Percentage of cell death % 24h NIH3t3; for cytotoxicity at 20 µM / Percentage of cell death % 24h NIH3t3: 24 h, 20 µM
Source text: as §1

[3] = target: T1, 14-3-3ζ:BAD-112-136F interactions (Homo sapiens, UniProt P63104); assay: BRET sensor screen for disruption of 14-3-3ζ-Rluc8:BAD-112-136F-mCitrine in living NIH-3T3 cells; assay type: cell-based, murine; design: inhibition: dose or concentration left out as unconfirmed; BRET reduction on NIH-3T3: unit not given here; settings: for inhibition / inhibition at 20 µM: NIH3T3, 3 h, read-out: BRET reduction on NIH-3T3
T1 construct: expressed in transfected cells; host or cells: NIH-3T3 fibroblasts, bi-directional pBI-CMV1 plasmid
T1 sequence (P63104 1-245): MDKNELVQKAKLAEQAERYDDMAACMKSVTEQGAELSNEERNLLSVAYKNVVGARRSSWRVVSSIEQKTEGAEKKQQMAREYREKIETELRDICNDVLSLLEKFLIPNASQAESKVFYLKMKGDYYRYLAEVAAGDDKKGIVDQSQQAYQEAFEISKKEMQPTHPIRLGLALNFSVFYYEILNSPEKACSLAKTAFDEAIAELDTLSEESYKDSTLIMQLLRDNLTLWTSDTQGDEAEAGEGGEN
Experimental: The Z’-score, which evaluates the robustness of an HTS assay readout, was calculated according to standard protocols. For the HTS, 384-well plates were coated with 100 μg/mL poly-L-ornithine (Sigma, Missouri, United States; #P3655) overnight at 37 °C, followed by rinsing with sterilized water. NIH-3T3 cells were transfected with the BRET sensor two days prior to experimentation, followed by replating onto the pre-coated 384-well plates at a density of 20,000 cells/well. After 24 h of incubation at 37 °C, growth media was replaced by Krebs buffer (pH 7.4).

[4] = HT-29, 24 h, 20 µM, 24 h, read-out: Percentage of cell death % 24h HT-29
[5] = HT-29, 48 h, HT-29, 48h, 20 μM, read-out: Percentage of cell death % 48h, HT-29
[6] = NIH-3T3 cells, hits from the primary screen
[7] = NIH-3T3 expressing BRET sensor, 20 µM, 3 h

| Compound | cytotoxicity at 20 µM [1, 4] | cytotoxicity at 20 µM [1, 5] | cytotoxicity at 20 µM [2] | Percentage of cell death % 48h, NIH3T3 [2] | inhibition [3, 6] | inhibition at 20 µM [3, 7] | Percentage of cell death % 24h HT-29 ([1]; 20 µM, 24 h) | Percentage of cell death % 48h, HT-29 ([1]; HT-29, 48h, 20 μM) | Percentage of cell death % 24h NIH3t3 [2] | BRET reduction on NIH-3T3 [3, 6] | BRET reduction on NIH-3T3 [3, 7] |
| --- | --- | --- | --- | --- | --- | --- | --- | --- | --- | --- | --- |
| CCc1c(Cl)c(O)c(Cl)c(O)c1C(=O)O[C@H]1[C@H](O)[C@H](OC)[C@H](OC/C2=C\C=C\C[C@H](O)/C(C)=C/[C@H](CC)[C@@H](O[C@@H]3OC(C)(C)[C@@H](OC(=O)C(C)C)[C@H](O)[C@@H]3O)/C(C)=C/C(C)=C/C[C@@H]([C@@H](C)O)OC2=O)O[C@@H]1C [Fidaxomicin] | 2.31% | 52.8% | 1.82% | 1.5823% | 32.5% | 32.5% | – | – | – | – | – |
| CC[C@H](c1ccc(O)cc1)[C@@H](CC)c1ccc(O)cc1 [Hexestrol] | 1.37% | 3.31% | 5.47% | 3.549% | 36.7% | 36.7% | – | – | – | – | – |
| Cc1cc(Nc2ncc(Cl)c(Nc3ccccc3S(=O)(=O)C(C)C)n2)c(OC(C)C)cc1C1CCNCC1 [LDK378] | 92.1% | 89.8% | 80.9% | 75.6563% | 46.5% | 46.5% | – | – | – | – | – |
| CC1(C)Cc2c(-c3ccccc3)c(-c3ccc(Cl)cc3)c(CC(=O)O)n2C1 [Licofelone] | 2.67% | 3.98% | 0.823% | 0.4583% | 33% | 33% | – | – | – | – | – |
| NC(=O)N1CCC(CC(=O)N2CCC([C@H]3c4ncc(Br)cc4CCc4cc(Cl)cc(Br)c43)CC2)CC1 [Lonafarnib] | 1.12% | 1.7% | 36.3% | 40.7575% | 40.6% | 40.6% | – | – | – | – | – |
| Clc1ccc(COC(Cn2ccnc2)c2ccc(Cl)cc2Cl)c(Cl)c1 (stereo not drawn) [Miconazole Nitrate] | – | – | – | 6.033% | – | – | 5.26% | 9.591% | 12.1676% | 52.8386 | 52.8386 |
| Clc1ccc(COC(Cn2ccnc2)c2ccc(Cl)cc2Cl)c(Cl)c1 (stereo not drawn) [Miconazole] | 2.78% | 5.75% | – | 3.437% | 48.7% | 48.7% | – | – | 6.07% | – | – |
| Clc1ccc(C(c2ccccc2Cl)C(Cl)Cl)cc1 (stereo not drawn) [Mitotane (Lsodren), Mitotane] | 0.553% | 1.62% | 25.3% | 5.575% | 25.6% | 25.6% | – | – | – | – | – |
| O=C1c2c(O)ccc(O)c2C(=O)c2c(NCCNCCO)ccc(NCCNCCO)c21 [Mitoxantrone HCl] | 0% | 0.0037% | 0.018% | 0% | 25.5% | 25.5% | – | – | – | – | – |
| CC(C)(O)c1ccccc1CC[C@@H](SCC1(CC(=O)O)CC1)c1cccc(/C=C/c2ccc3ccc(Cl)cc3n2)c1 [Montelukast Sodium] | 0.524% | 1.19% | 14.8% | 2.7667% | 30.9% | 30.9% | – | – | – | – | – |
| CC[C@H]1[C@@H](O)[C@@H]2[C@H](CC[C@]3(C)[C@@H]([C@H](C)CCC(=O)O)CC[C@@H]23)[C@@]2(C)CC[C@@H](O)C[C@@H]12 [Obeticholic Acid] | 0.566% | 1.41% | 1.16% | 0.273% | 36.4% | 36.4% | – | – | – | – | – |
| CCOc1cc(CC(=O)N[C@@H](CC(C)C)c2ccccc2N2CCCCC2)ccc1C(=O)O [Repaglinide] | 0.354% | 1.01% | 0.236% | 0.185% | 28.4% | 28.4% | – | – | – | – | – |
